# Reference: ChEMBL document CHEMBL1133919, “Identification of selective inhibitors of cyclin dependent kinase 4” (Bioorg Med Chem Lett, 2001)
# Key:
# [1] = target: T1, Cyclin-dependent kinase 4/cyclin D1 (Homo sapiens, UniProt P11802); assay: Inhibitory activity against Cyclin dependent kinase CDK4/D1; assay type: protein-complex assay
# HCT-116 = assay: Inhibition of colon carcinoma cell line HCT116 proliferation; assay type: functional, cell-based; conditions: Homo sapiens
# SKUT-1A = assay: Inhibition of Rb negative Skut 1A cell proliferation; assay type: functional, cell-based; conditions: Homo sapiens
# Skut1B = assay: Inhibition of Rb positive Skut 1B cell proliferation; assay type: functional, cell-based; conditions: Homo sapiens
# [2] = target: Cyclin-dependent kinase 1 (Homo sapiens) (UniProt P06493); assay: Inhibition of Cyclin dependent kinase CDK1/B
# Chain of Cyclin-dependent kinase 1 (Homo sapiens) (P06493 whole entry, looked up): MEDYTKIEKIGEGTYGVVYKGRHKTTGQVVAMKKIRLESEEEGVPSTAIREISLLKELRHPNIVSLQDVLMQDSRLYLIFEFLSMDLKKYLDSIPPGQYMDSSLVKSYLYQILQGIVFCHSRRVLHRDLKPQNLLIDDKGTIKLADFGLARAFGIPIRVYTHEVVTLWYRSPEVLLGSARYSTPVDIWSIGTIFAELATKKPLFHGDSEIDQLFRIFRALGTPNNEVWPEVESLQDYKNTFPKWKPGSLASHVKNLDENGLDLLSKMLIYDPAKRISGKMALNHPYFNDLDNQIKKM
# [3] = target: Cyclin-dependent kinase 2/cyclin E (Homo sapiens, UniProt P24941); assay: Inhibition of CDK2/cyclin E; assay type: protein-complex assay
# [4] = target: Cyclin-dependent kinase 1/cyclin B (Homo sapiens, UniProt P06493); assay: Inhibition of CDK1/cyclin B; assay type: protein-complex assay
# [5] = target: T1, Cyclin-dependent kinase 4/cyclin D1; assay: Inhibition of Cyclin dependent kinase CDK4/cyclin D1; assay type: protein-complex assay
# T1 sequence (P11802 whole entry): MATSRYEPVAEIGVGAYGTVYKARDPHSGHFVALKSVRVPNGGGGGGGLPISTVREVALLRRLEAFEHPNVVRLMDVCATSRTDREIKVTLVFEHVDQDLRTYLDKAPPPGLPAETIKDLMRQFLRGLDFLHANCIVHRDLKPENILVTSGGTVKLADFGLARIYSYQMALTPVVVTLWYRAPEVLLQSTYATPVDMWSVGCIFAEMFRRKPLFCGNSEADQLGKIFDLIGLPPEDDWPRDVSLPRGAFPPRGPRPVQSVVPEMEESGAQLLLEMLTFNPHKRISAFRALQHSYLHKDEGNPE
# T1 sequence (P24385 whole entry, further chain): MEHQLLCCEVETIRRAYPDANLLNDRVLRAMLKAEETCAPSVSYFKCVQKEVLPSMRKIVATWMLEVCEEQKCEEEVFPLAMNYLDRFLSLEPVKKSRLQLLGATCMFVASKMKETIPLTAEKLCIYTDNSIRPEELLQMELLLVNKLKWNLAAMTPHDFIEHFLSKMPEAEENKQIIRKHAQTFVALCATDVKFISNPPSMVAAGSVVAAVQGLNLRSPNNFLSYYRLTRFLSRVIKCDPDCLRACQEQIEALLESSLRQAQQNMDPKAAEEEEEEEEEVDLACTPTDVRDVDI
Structure (SMILES),IC50 [1] [µM],further results
c1cnc2c(c1)ccc1[nH]c3ccccc3c12,442,–
c1ccc2c(c1)[nH]c1ccc3cnccc3c12,30,–
Oc1ccc(-c2cccc3c2[nH]c2ccc4ccc(O)cc4c23)cc1,1.9,IC50 (HCT-116): 2.2 µM; IC50 (SKUT-1A): 5.6 µM; IC50 (Skut1B): 2.3 µM
c1ccc2c(c1)[nH]c1ccc3ncccc3c12,197,–
Oc1ccc2ccc3[nH]c4ccc(-c5ccccc5)cc4c3c2c1,37.5,–
c1ccc2c(c1)[nH]c1ccc3ccncc3c12,159,–
[O-][n+]1ccc2ccc3[nH]c4ccccc4c3c2c1,605,–
Oc1ccc2ccc3[nH]c4c(-c5ccc(Cl)cc5)cccc4c3c2c1,9.9,IC50 (HCT-116): 51 µM; IC50 (SKUT-1A): 36 µM; IC50 (Skut1B): 10.2 µM
Oc1ccc2ccc3[nH]c4cc(-c5ccccc5)ccc4c3c2c1,22,–
Oc1ccc2ccc3[nH]c4c(-c5ccccc5)cccc4c3c2c1,–,IC50 [3]: 97 µM; IC50 [4]: 95 µM; IC50 (HCT-116): 10.2 µM; IC50 (SKUT-1A): 10.7 µM; IC50 (Skut1B): 2.8 µM; IC50 [5]: 3.6 µM
[O-][n+]1ccc2c(ccc3[nH]c4ccccc4c32)c1,59,–
Oc1ccc2ccc3[nH]c4ccccc4c3c2c1,17.4,–

# The next lines start with results.
IC50 [1] [µM],Structure (SMILES),further results
27.3,Nc1ccc2ccc3[nH]c4c(-c5ccccc5)cccc4c3c2c1,–
> 309,COc1ccc2ccc3[nH]c4c(-c5ccccc5)cccc4c3c2c1,–
> 341,c1ccc(-c2cccc3c2[nH]c2ccc4ccccc4c23)cc1,–
29,Oc1ccc2c(ccc3[nH]c4c(-c5ccccc5)cccc4c32)c1,–
19.5,Oc1cccc2ccc3[nH]c4c(-c5ccccc5)cccc4c3c12,–
2.3,Nc1cccc(-c2cccc3c2[nH]c2ccc4ccc(O)cc4c23)c1,IC50 [2]: 74.5 µM; IC50 (HCT-116): 9.6 µM; IC50 (SKUT-1A): 11.6 µM; IC50 (Skut1B): 4.1 µM
5.8,Oc1cccc2c1ccc1[nH]c3c(-c4ccccc4)cccc3c12,–
83,Oc1ccc2ccc3[nH]c4cccc(-c5ccccc5)c4c3c2c1,–
